The results in this text go back to US20190292167A1, “HETEROAROMATIC COMPOUNDS USEFUL FOR THE TREATMENT OF PROLIFERATIVE DISEASES” (Syros Pharmaceuticals, Inc., priority 2013, published 2019).

The test system of one experiment is SKBR-3. In words: Inhibition of cell proliferation, CellTiter-Glo, 72 hour. It is filed as cell-based. As to conditions: Homo sapiens, SK-BR-3, Breast Cancer/Breast cell line, read-out: Inhibition of Proliferation SKBR3. A general note: In ATP-based viability assays light output follows the ATP content of the culture.
Another experiment deals with MDA-MB231. Described as above. It is filed as cell-based. The following applies: Homo sapiens, MDA-MB-231, Breast Cancer/Breast cell line.
In another experiment the test system is MCF-10A. The experiment is described as above. It is filed as cell-based. The following applies: Homo sapiens, Breast Cancer/Breast cell line, read-out: Inhibition of Proliferation MCF10A.
In the next experiment the test system is THP-1. Described as above. Format: cell-based. The following applies: Homo sapiens, Blood cancer cell line.
For a further experiment, the system named is HL-60. Described as above. Format: cell-based. The following applies: Homo sapiens, Blood cancer cell line, read-out: Inhibition of Proliferation HL60.
Another experiment concerns Hs863T. The description is as above. The following applies: Ewing's Sarcoma cell line. Format: cell-based. As to the method:
(§1) • Hs863T—DMEM (4 mM L-Glut, 4.5 g/L Glucose, 1 mM pyruvate, 1.5 g/l bicarb)+10% FBS • Hs822T—DMEM (4 mM L-Glut, 4.5 g/L Glucose, 1 mM pyruvate, 1.5 g/l bicarb)+10% FBS • A673—DMEM (4 mM L-Glut, 4.5 g/L Glucose, 1 mM pyruvate, 1.5 g/l bicarb)+10% FBS • SKES-1—McCoy's 5a Medium Modified (modified—1.5 mM L-glut, 2.2 g/L bicarb)+15% FBS • RD-ES—RPMI 1640+15% FBS.

In a further experiment the test system is RD-ES. The description is as above. Format: cell-based. The following applies: Ewing's Sarcoma cell line. On the procedure:
as §1

In another experiment the test system is Hs822T. The description is as above. Format: cell-based. The following applies: Ewing's Sarcoma cell line. On the procedure: as §1
The subject of another experiment is SKES-1. Described as above. As to conditions: Homo sapiens, SK-ES1, Ewing's Sarcoma cell line, read-out: Inhibition of Proliferation SK-ES. It is filed as cell-based. On the procedure: as §1
For a further experiment, the system named is A673. Described as above. As to conditions: Homo sapiens, Ewing's Sarcoma cell line. It is filed as cell-based. On the procedure:
as §1

Another experiment has as its system T47D. The description is as above. Format: cell-based. As to conditions: Homo sapiens, Breast Cancer/Breast cell line.
For another experiment, the system named is MCF-7. The experiment is described as above. Format: cell-based. As to conditions: Homo sapiens, MCF7, Breast Cancer/Breast cell line.
A further experiment concerns RS4-11. The experiment is described as above. Format: cell-based. The following applies: Homo sapiens, Blood cancer cell line.
The next experiment deals with MNNG-Hos Cl#5. The experiment is described as above. It is filed as cell-based. As to conditions: Osteosarcoma cell line.
The subject of the next experiment is 143B. The experiment is described as above. Format: cell-based. The following applies: Homo sapiens, Osteosarcoma cell line.
Another experiment relates to MV4-11. The experiment is described as above. It is filed as cell-based. As to conditions: Homo sapiens, Blood cancer cell line.
Another experiment relates to SAOS. The experiment is described as above. Format: cell-based. As to conditions: Osteosarcoma cell line.
The test system of the next experiment is hTERT-HME1. The description is as above. It is filed as cell-based. As to conditions: Breast Cancer/Breast cell line.
The next experiment deals with T1, CDK7 (Homo sapiens, UniProt P50613).
T1 construct: purchased Life Technologies (Adapta kinase assay service)
In words: Adapta kinase assay (Life Technologies) against CDK7, co-factors cyclin H and MNAT1. It is filed as biochemical. The following applies: read-out: CDK7 Inhibition.

In another experiment the test system is Jurkat. The experiment in a line: Inhibition of cell proliferation, CellTiter-Glo, 72 hour. Format: cell-based. As to conditions: Homo sapiens, Jurkat, 72 h, Blood cancer cell line; 72 hour; read-out: Inhibition of Proliferation of Jurkat Cells. As to the method: The following cancer cell lines were tested with the media conditions indicated: […]

Where a name gives a salt, the structure may show the parent alone.

T1 sequence (P50613 whole entry): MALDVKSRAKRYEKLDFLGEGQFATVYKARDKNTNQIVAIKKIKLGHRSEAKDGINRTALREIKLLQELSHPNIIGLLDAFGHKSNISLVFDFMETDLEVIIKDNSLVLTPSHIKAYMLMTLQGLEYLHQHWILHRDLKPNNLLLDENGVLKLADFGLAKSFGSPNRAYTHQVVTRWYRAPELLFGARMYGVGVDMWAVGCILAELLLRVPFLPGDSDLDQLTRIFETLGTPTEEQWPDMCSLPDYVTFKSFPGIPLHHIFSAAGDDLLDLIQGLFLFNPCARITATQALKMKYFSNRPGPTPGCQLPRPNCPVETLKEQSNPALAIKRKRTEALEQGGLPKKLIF
T1 sequence (P51946 whole entry partner): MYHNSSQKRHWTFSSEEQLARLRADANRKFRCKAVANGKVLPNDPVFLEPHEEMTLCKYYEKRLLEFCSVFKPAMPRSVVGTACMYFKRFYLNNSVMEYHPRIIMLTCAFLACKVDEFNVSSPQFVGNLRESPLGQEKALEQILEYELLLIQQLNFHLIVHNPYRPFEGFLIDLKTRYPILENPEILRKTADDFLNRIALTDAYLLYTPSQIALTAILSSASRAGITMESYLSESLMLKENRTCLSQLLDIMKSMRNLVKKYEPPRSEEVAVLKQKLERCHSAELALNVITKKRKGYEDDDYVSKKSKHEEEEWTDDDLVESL
T1 sequence (P51948 whole entry partner): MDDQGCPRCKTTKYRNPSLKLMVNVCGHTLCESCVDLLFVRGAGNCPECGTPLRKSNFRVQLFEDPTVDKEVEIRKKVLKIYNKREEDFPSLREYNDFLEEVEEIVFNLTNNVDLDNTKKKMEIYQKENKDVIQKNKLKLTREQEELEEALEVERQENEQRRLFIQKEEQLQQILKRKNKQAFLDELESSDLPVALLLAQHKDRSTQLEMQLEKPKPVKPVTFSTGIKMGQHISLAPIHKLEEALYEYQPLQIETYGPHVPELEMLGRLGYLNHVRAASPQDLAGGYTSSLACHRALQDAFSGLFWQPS

In the case of `CC(C)[C@]12O[C@H]1[C@@H]1O[C@]13[C@]1(O[C@H]1C[C@H]1C4=C(CC[C@@]13C)C(=O)OC4)[C@@H]2O` [Triptolide, triptolide, reference compound], the IC50 was below 500 nM in the experiment on SKBR-3; below 500 nM in the experiment on MDA-MB231; below 500 nM in the experiment with MCF-10A; below 500 nM in the experiment on THP-1; below 500 nM in the experiment with HL-60; above 5000 nM in the experiment on Hs863T. Moreover, the IC50 is below 500 nM with RD-ES; 500 to 5000 nM in the experiment on Hs822T; below 500 nM with SKES-1; below 500 nM in the experiment with A673; above 5000 nM in the experiment on T47D; below 500 nM in the experiment on MCF-7. Further, the IC50 with RS4-11, in the experiment on MNNG-Hos Cl#5, in the experiment with 143B, with MV4-11, with SAOS and with hTERT-HME1 was below 500 nM in each case.

For the compound `CN(C)C/C=C/C(=O)Nc1ccc(C(=O)N2CCC(Nc3ncc(C#N)c(-c4c[nH]c5ccccc45)n3)CC2)cc1` [Compound 102, (E)-N-(4-(4-(5-cyano-4-(1H-indol-3-yl)pyrimidin-2-ylamino)piperidine-1-carbonyl)phenyl)-4-(dimethylamino)but-2-enamide], the IC50 in the experiment on SKBR-3 was above 5000 nM; in the experiment with MDA-MB231, below 500 nM; at CDK7 it was below 100 nM; in the experiment on MCF-10A, below 500 nM; in the experiment with THP-1, below 500 nM; in the experiment on HL-60 it was below 500 nM. The IC50 with Hs863T was above 5000 nM; with RD-ES it was below 500 nM; with Hs822T it was 500 to 5000 nM; with SKES-1, below 500 nM; with A673, below 500 nM; with T47D, above 5000 nM. In addition, the IC50 in the experiment with MCF-7 was below 500 nM; with RS4-11, below 500 nM; in the experiment with Jurkat, below 500 nM; with MNNG-Hos Cl#5, above 5000 nM; in the experiment on 143B, above 5000 nM; with MV4-11, below 500 nM. Also, the IC50 in the experiment on SAOS and in the experiment on hTERT-HME1 was below 500 nM each time.

On to `CN(C)C/C=C/C(=O)Nc1ccc(C(=O)N2CC[C@@H](Nc3ncc(Cl)c(-c4c[nH]c5ccccc45)n3)C2)cc1` [Compound 104, (E)-N-(4-((R)-3-(5-chloro-4-(1H-indol-3-yl)pyrimidin-2-ylamino)pyrrolidine-1-carbonyl)phenyl)-4-(dimethylamino)but-2-enamide.TFA], for which the IC50 in the experiment with SKBR-3 is above 5000 nM; in the experiment with MDA-MB231 it was below 500 nM; on CDK7 it was below 100 nM; with MCF-10A it was below 500 nM; in the experiment with THP-1, below 500 nM; in the experiment with HL-60, below 500 nM. The IC50 in the experiment with Hs863T is above 5000 nM; with RD-ES, below 500 nM; in the experiment on Hs822T it was 500 to 5000 nM; in the experiment with SKES-1, below 500 nM; in the experiment with A673 it was below 500 nM; in the experiment on T47D it was above 5000 nM. Further, the IC50 in the experiment with MCF-7 was 500 to 5000 nM; in the experiment on RS4-11, below 500 nM; in the experiment on Jurkat, below 500 nM; in the experiment with MNNG-Hos Cl#5 it was above 5000 nM; with 143B it was above 5000 nM; in the experiment with MV4-11, below 500 nM. The IC50 in the experiment with SAOS and in the experiment with hTERT-HME1 was below 500 nM each time.

Consider `CN(C)C/C=C/C(=O)Nc1ccc(C(=O)N2CC[C@H](Nc3ncc(Cl)c(-c4c[nH]c5ccccc45)n3)C2)cc1` [Compound 101, (E)-N-(4-((S)-3-(5-chloro-4-(1H-indol-3-yl)pyrimidin-2-ylamino)pyrrolidine-1-carbonyl)phenyl)-4-(dimethylamino)but-2-enamide], for which the IC50 in the experiment on SKBR-3 was above 5000 nM; in the experiment with MDA-MB231, above 5000 nM; at CDK7, 100 to 1000 nM; with MCF-10A, 500 to 5000 nM; in the experiment with THP-1, above 5000 nM; with HL-60 it was above 5000 nM. The IC50 is above 5000 nM with Hs863T; above 5000 nM in the experiment with RD-ES; above 5000 nM in the experiment on Hs822T; 500 to 5000 nM in the experiment on SKES-1; 500 to 5000 nM in the experiment with A673; above 5000 nM in the experiment with T47D. In addition, the IC50 with MCF-7 is above 5000 nM; in the experiment on RS4-11 it was 500 to 5000 nM; in the experiment on Jurkat it was 500 to 5000 nM; with MNNG-Hos Cl#5, above 5000 nM; with 143B, above 5000 nM; in the experiment on MV4-11 it was below 500 nM. For the same compound, the values for the IC50 in the experiment on SAOS and in the experiment with hTERT-HME1 were above 5000 nM and 500 to 5000 nM, respectively.

As for `CN(C)C/C=C/C(=O)Nc1ccc(C(=O)N2CC[C@@H](Nc3ncc(C#N)c(-c4c[nH]c5ccccc45)n3)C2)cc1` [Compound 103, (E)-N-(4-((R)-3-(5-cyano-4-(1H-indol-3-yl)pyrimidin-2-ylamino)pyrrolidine-1-carbonyl)phenyl)-4-(dimethylamino)but-2-enamide], the IC50 is above 5000 nM in the experiment on SKBR-3; below 500 nM in the experiment with MDA-MB231; below 100 nM on CDK7; below 500 nM in the experiment on MCF-10A; below 500 nM in the experiment with THP-1; below 500 nM in the experiment with HL-60. In addition, the IC50 in the experiment with Hs863T was above 5000 nM; in the experiment on RD-ES, below 500 nM; in the experiment on Hs822T it was above 5000 nM; in the experiment on SKES-1, below 500 nM; in the experiment with A673 it was below 500 nM; with T47D it was above 5000 nM. Also, the IC50 with MCF-7 is above 5000 nM; with RS4-11, below 500 nM; in the experiment on Jurkat, below 500 nM; with MNNG-Hos Cl#5, 500 to 5000 nM; with 143B, above 5000 nM; in the experiment on MV4-11, below 500 nM. Also, the IC50 with SAOS and with hTERT-HME1 was below 500 nM in each case.

With `CN(C)C/C=C/C(=O)Nc1ccc(C(=O)N2CCC(Nc3ncc(Cl)c(-c4c[nH]c5ccccc45)n3)CC2)cc1` [Compound 100, (E)-N-(4-(4-(5-chloro-4-(1H-indol-3-yl)pyrimidin-2-ylamino)piperidine-1-carbonyl)phenyl)-4-(dimethylamino)but-2-enamide], the IC50 in the experiment on SKBR-3 is above 5000 nM; in the experiment with MDA-MB231, below 500 nM; at CDK7, below 100 nM; with MCF-10A, below 500 nM; with THP-1, below 500 nM; with HL-60, below 500 nM. Moreover, the IC50 in the experiment with Hs863T was above 5000 nM; in the experiment on RD-ES, below 500 nM; with Hs822T, 500 to 5000 nM; in the experiment on SKES-1 it was below 500 nM; in the experiment with A673, below 500 nM; in the experiment with T47D it was above 5000 nM. Moreover, the IC50 with MCF-7 is below 500 nM; in the experiment on RS4-11, below 500 nM; with Jurkat it was below 500 nM; in the experiment on MNNG-Hos Cl#5 it was 500 to 5000 nM; in the experiment on 143B, above 5000 nM; in the experiment with MV4-11, below 500 nM. The IC50 in the experiment with SAOS and with hTERT-HME1 was below 500 nM each time.

For the compound `CN1CC[C@H](c2c(O)cc(O)c3c(=O)cc(-c4ccccc4Cl)oc23)[C@H](O)C1` [Flavopiridol, flavopiridol, reference compound], the IC50 is below 500 nM with SKBR-3; below 500 nM in the experiment with MDA-MB231; below 500 nM in the experiment on MCF-10A; below 500 nM with THP-1; below 500 nM with HL-60; above 5000 nM in the experiment with Hs863T. Further, the IC50 in the experiment on RD-ES was below 500 nM; with Hs822T it was above 5000 nM; with SKES-1 it was below 500 nM; in the experiment with A673, below 500 nM; with T47D, above 5000 nM; with MCF-7 it was 500 to 5000 nM. Further, the IC50 in the experiment on RS4-11 is below 500 nM; with MNNG-Hos Cl#5, 500 to 5000 nM; in the experiment on 143B, 500 to 5000 nM; with MV4-11, below 500 nM; in the experiment with SAOS, below 500 nM; in the experiment with hTERT-HME1, below 500 nM.

On to `CC(C)(CNC(=O)c1ccc(NC(=O)/C=C/CO)cc1)CNc1ncc(Cl)c(-c2c[nH]c3ccccc23)n1` [Compound 132, (E)-N-(3-(5-chloro-4-(1H-indol-3-yl)pyrimidin-2-ylamino)-2,2-dimethylpropyl)-4-(4-hydroxybut-2-enamido)benzamide], for which the IC50 on CDK7 was above 1000 nM; in the experiment with Jurkat it was above 5000 nM.

With `CN(C)C/C=C/C(=O)Nc1ccc(C(=O)N2CCC(Nc3ncc(Cl)c(-c4cccnc4)n3)CC2)cc1` [Compound 118, (E)-N-(4-(4-((5-chloro-4-(pyridin-3-yl)pyrimidin-2-yl)amino)piperidine-1-carbonyl)phenyl)-4-(dimethylamino)but-2-enamide], the IC50 lay in the range of 100 to 1000 nM on CDK7 and 500 to 5000 nM in the experiment on Jurkat.
